Measurements published in ChEMBL document CHEMBL2046376, “Synthesis and antimicrobial activity of amide derivatives of polyether antibiotic-salinomycin” (2012).
Converted amounts (≈) assume the structure as drawn. The source made the active and inactive calls. The rule behind the calls is not given here.

Assays:
Format in all cases: functional
Staphylococcus aureus [1] = assay: Antibacterial activity against hospital-acquired methicillin-resistant Staphylococcus aureus 401/10 after 18 hrs by twofold serial agar dilution technique; conditions: 401/10, 18 h
Staphylococcus aureus [2] = assay: Antibacterial activity against Staphylococcus aureus ATCC 29213 assessed as zone of inhibition at 400 ug/disc after 18 hrs by disc diffusion method; conditions: ATCC 29213, 18 h, read-out: DIZ
[3] = system: Staphylococcus epidermidis; assay: Antibacterial activity against Staphylococcus epidermidis ATCC 12228 assessed as zone of inhibition at 400 ug/disc after 18 hrs by disc diffusion method; conditions: ATCC 12228, 18 h, read-out: DIZ
Staphylococcus aureus [4] = assay: Antibacterial activity against hospital-acquired methicillin-resistant Staphylococcus aureus 451/11 after 18 hrs by twofold serial agar dilution technique; conditions: 451/11, 18 h
Staphylococcus aureus [5] = assay: Antibacterial activity against hospital-acquired methicillin-sensitive Staphylococcus aureus 442/11 after 18 hrs by twofold serial agar dilution technique; conditions: 442/11, 18 h
Staphylococcus aureus [6] = assay: Antibacterial activity against hospital-acquired methicillin-sensitive Staphylococcus aureus 443/11 after 18 hrs by twofold serial agar dilution technique; conditions: 443/11, 18 h
Staphylococcus aureus [7] = assay: Antibacterial activity against hospital-acquired methicillin-sensitive Staphylococcus aureus 445/11 after 18 hrs by twofold serial agar dilution technique; conditions: 445/11, 18 h
[8] = system: Staphylococcus epidermidis; assay: Antibacterial activity against Staphylococcus epidermidis ATCC 35984 after 18 hrs by twofold serial agar dilution technique; conditions: ATCC 35984, 18 h
Escherichia coli [9] = assay: Antibacterial activity against Escherichia coli NCTC 8196 after 18 hrs by twofold serial agar dilution technique
Staphylococcus aureus [10] = assay: Antibacterial activity against hospital-acquired methicillin-sensitive Staphylococcus aureus 447/11 after 18 hrs by twofold serial agar dilution technique; conditions: 447/11, 18 h
Staphylococcus aureus [11] = assay: Antibacterial activity against hospital-acquired methicillin-sensitive Staphylococcus aureus 441/11 after 18 hrs by twofold serial agar dilution technique; conditions: 441/11, 18 h
Candida albicans [12] = assay: Antifungal activity against Candida albicans ATCC 10231 after 24 hrs by twofold serial agar dilution technique
Pseudomonas aeruginosa [13] = assay: Antibacterial activity against Pseudomonas aeruginosa ATCC 27853 after 18 hrs by twofold serial agar dilution technique
Escherichia coli [14] = assay: Antibacterial activity against Escherichia coli ATCC 25922 after 18 hrs by twofold serial agar dilution technique
Staphylococcus aureus [15] = assay: Antibacterial activity against hospital-acquired methicillin-sensitive Staphylococcus aureus 449/11 after 18 hrs by twofold serial agar dilution technique; conditions: 449/11, 18 h
Candida parapsilosis = assay: Antifungal activity against Candida parapsilosis ATCC 22019 after 24 hrs by twofold serial agar dilution technique
Staphylococcus aureus [16] = assay: Antibacterial activity against Staphylococcus aureus NCTC 4163 after 18 hrs by twofold serial agar dilution technique; conditions: NCTC 4163, 18 h
Staphylococcus aureus [17] = assay: Antibacterial activity against hospital-acquired methicillin-resistant Staphylococcus aureus 482/11 after 18 hrs by twofold serial agar dilution technique; conditions: 482/11, 18 h
Pseudomonas aeruginosa [18] = assay: Antibacterial activity against Pseudomonas aeruginosa NCTC 6749 after 18 hrs by twofold serial agar dilution technique
Candida albicans [19] = assay: Antifungal activity against Candida albicans ATCC 90028 after 24 hrs by twofold serial agar dilution technique
[20] = system: Bordetella bronchiseptica; assay: Antibacterial activity against Bordetella bronchiseptica ATCC 4617 after 18 hrs by twofold serial agar dilution technique
Staphylococcus aureus [21] = assay: Antibacterial activity against Staphylococcus aureus NCTC 4163 assessed as zone of inhibition at 400 ug/disc after 18 hrs by disc diffusion method; conditions: NCTC 4163, 18 h, read-out: DIZ
Staphylococcus aureus [22] = assay: Antibacterial activity against Staphylococcus aureus ATCC 6538 after 18 hrs by twofold serial agar dilution technique; conditions: ATCC 6538, 18 h
Staphylococcus aureus [23] = assay: Antibacterial activity against hospital-acquired methicillin-resistant Staphylococcus aureus 481/11 after 18 hrs by twofold serial agar dilution technique; conditions: 481/11, 18 h
Proteus vulgaris = assay: Antibacterial activity against Proteus vulgaris NCTC 4635 after 18 hrs by twofold serial agar dilution technique
Staphylococcus aureus [24] = assay: Antibacterial activity against hospital-acquired methicillin-resistant Staphylococcus aureus 399/10 after 18 hrs by twofold serial agar dilution technique; conditions: 399/10, 18 h
Staphylococcus aureus [25] = assay: Antibacterial activity against hospital-acquired methicillin-sensitive Staphylococcus aureus 446/11 after 18 hrs by twofold serial agar dilution technique; conditions: 446/11, 18 h
Staphylococcus aureus [26] = assay: Antibacterial activity against hospital-acquired methicillin-sensitive Staphylococcus aureus 440/11 after 18 hrs by twofold serial agar dilution technique; conditions: 440/11, 18 h
Staphylococcus aureus [27] = assay: Antibacterial activity against Staphylococcus aureus ATCC 6538 assessed as zone of inhibition at 400 ug/disc after 18 hrs by disc diffusion method; conditions: ATCC 6538, 18 h, read-out: DIZ
Staphylococcus aureus [28] = assay: Antibacterial activity against hospital-acquired methicillin-resistant Staphylococcus aureus 394/10 after 18 hrs by twofold serial agar dilution technique; conditions: 394/10, 18 h
Staphylococcus aureus [29] = assay: Antibacterial activity against hospital-acquired methicillin-sensitive Staphylococcus aureus 448/11 after 18 hrs by twofold serial agar dilution technique; conditions: 448/11, 18 h
Staphylococcus aureus [30] = assay: Antibacterial activity against hospital-acquired methicillin-resistant Staphylococcus aureus 450/11 after 18 hrs by twofold serial agar dilution technique; conditions: 450/11, 18 h
Staphylococcus aureus [31] = assay: Antibacterial activity against Staphylococcus aureus ATCC 25923 after 18 hrs by twofold serial agar dilution technique; conditions: ATCC 25923, 18 h
[32] = system: Staphylococcus epidermidis; assay: Antibacterial activity against Staphylococcus epidermidis ATCC 12228 after 18 hrs by twofold serial agar dilution technique; conditions: ATCC 12228, 18 h
Staphylococcus aureus [33] = assay: Antibacterial activity against hospital-acquired methicillin-resistant Staphylococcus aureus 452/11 after 18 hrs by twofold serial agar dilution technique; conditions: 452/11, 18 h
Staphylococcus aureus [34] = assay: Antibacterial activity against hospital-acquired methicillin-resistant Staphylococcus aureus 393/10 after 18 hrs by twofold serial agar dilution technique; conditions: 393/10, 18 h
Staphylococcus aureus [35] = assay: Antibacterial activity against Staphylococcus aureus ATCC 29213 after 18 hrs by twofold serial agar dilution technique; conditions: ATCC 29213, 18 h
Staphylococcus aureus [36] = assay: Antibacterial activity against Staphylococcus aureus ATCC 25923 assessed as zone of inhibition at 400 ug/disc after 18 hrs by disc diffusion method; conditions: ATCC 25923, 18 h, read-out: DIZ
Escherichia coli [37] = assay: Antibacterial activity against Escherichia coli ATCC 10538 after 18 hrs by twofold serial agar dilution technique
Staphylococcus aureus [38] = assay: Antibacterial activity against hospital-acquired methicillin-sensitive Staphylococcus aureus 444/11 after 18 hrs by twofold serial agar dilution technique; conditions: 444/11, 18 h
Pseudomonas aeruginosa [39] = assay: Antibacterial activity against Pseudomonas aeruginosa ATCC 15442 after 18 hrs by twofold serial agar dilution technique
Staphylococcus aureus [40] = assay: Antibacterial activity against hospital-acquired methicillin-resistant Staphylococcus aureus 400/10 after 18 hrs by twofold serial agar dilution technique; conditions: 400/10, 18 h
[41] = system: Staphylococcus epidermidis; assay: Antibacterial activity against Staphylococcus epidermidis ATCC 35984 assessed as zone of inhibition at 400 ug/disc after 18 hrs by disc diffusion method; conditions: ATCC 35984, 18 h, read-out: DIZ

SMILES: CC[C@@H](C(=O)[C@@H](C)[C@@H](O)[C@H](C)[C@@H]1O[C@@H]([C@@H](CC)C(=O)Nc2ccccc2)CC[C@@H]1C)[C@H]1O[C@]2(C=C[C@@H](O)[C@]3(CC[C@@](C)([C@H]4CC[C@](O)(CC)[C@H](C)O4)O3)O2)[C@H](C)C[C@@H]1C
- MIC (Staphylococcus aureus [1]): 4 µg/mL (≈ 4.84 µM)
- zone of inhibition at 400 µg/disc (Staphylococcus aureus [2]): 21 mm
- zone of inhibition at 400 µg/disc [3]: 22 mm
- MIC (Staphylococcus aureus [4]): 4 µg/mL (≈ 4.84 µM)
- MIC (Staphylococcus aureus [5]): 2 µg/mL (≈ 2.42 µM)
- MIC (Staphylococcus aureus [6]): 2 µg/mL (≈ 2.42 µM)
- MIC (Staphylococcus aureus [7]): 2 µg/mL (≈ 2.42 µM)
- MIC [8]: 4 µg/mL (≈ 4.84 µM)
- Activity (Escherichia coli [9]): inactive
- MIC (Staphylococcus aureus [10]): 2 µg/mL (≈ 2.42 µM)
- MIC (Staphylococcus aureus [11]): 2 µg/mL (≈ 2.42 µM)
- Activity (Candida albicans [12]): inactive
- Activity (Pseudomonas aeruginosa [13]): inactive
- Activity (Escherichia coli [14]): inactive
- MIC (Staphylococcus aureus [15]): 2 µg/mL (≈ 2.42 µM)
- Activity (Candida parapsilosis): inactive
- MIC (Staphylococcus aureus [16]): 2 µg/mL (≈ 2.42 µM)
- MIC (Staphylococcus aureus [17]): 4 µg/mL (≈ 4.84 µM)
- Activity (Pseudomonas aeruginosa [18]): inactive
- Activity (Candida albicans [19]): inactive
- Activity [20]: inactive
- zone of inhibition at 400 µg/disc (Staphylococcus aureus [21]): 19 mm
- MIC (Staphylococcus aureus [22]): 2 µg/mL (≈ 2.42 µM)
- MIC (Staphylococcus aureus [23]): 4 µg/mL (≈ 4.84 µM)
- Activity (Proteus vulgaris): inactive
- MIC (Staphylococcus aureus [24]): 4 µg/mL (≈ 4.84 µM)
- MIC (Staphylococcus aureus [25]): 2 µg/mL (≈ 2.42 µM)
- MIC (Staphylococcus aureus [26]): 2 µg/mL (≈ 2.42 µM)
- zone of inhibition at 400 µg/disc (Staphylococcus aureus [27]): 20 mm
- MIC (Staphylococcus aureus [28]): 4 µg/mL (≈ 4.84 µM)
- MIC (Staphylococcus aureus [29]): 2 µg/mL (≈ 2.42 µM)
- MIC (Staphylococcus aureus [30]): 4 µg/mL (≈ 4.84 µM)
- MIC (Staphylococcus aureus [31]): 2 µg/mL (≈ 2.42 µM)
- MIC [32]: 2 µg/mL (≈ 2.42 µM)
- MIC (Staphylococcus aureus [33]): 4 µg/mL (≈ 4.84 µM)
- MIC (Staphylococcus aureus [34]): 4 µg/mL (≈ 4.84 µM)
- MIC (Staphylococcus aureus [35]): 2 µg/mL (≈ 2.42 µM)
- zone of inhibition at 400 µg/disc (Staphylococcus aureus [36]): 18 mm
- Activity (Escherichia coli [37]): inactive
- MIC (Staphylococcus aureus [38]): 2 µg/mL (≈ 2.42 µM)
- Activity (Pseudomonas aeruginosa [39]): inactive
- MIC (Staphylococcus aureus [40]): 4 µg/mL (≈ 4.84 µM)
- zone of inhibition at 400 µg/disc [41]: 20 mm
